Test results as given in patent US20260234268A1, “ANTI-ASGR1 MONOCLONAL ANTIBODY AND USE THEREOF” (CHOLESGEN (SHANGHAI) CO., LTD., priority 2022, published 2026).

Key:
[1] = system: mice fed a high-fat, high-cholesterol, and cholate (HF/HC/BS) diet; assay: 4B9 and atorvastatin, alone or combined, in mice fed HF/HC/BS diet, 14 days (Example 2, FIG. 3); conditions: 4B9 10 mg/kg/day i.p. every other day
Method: 8-week-old Asgr1 knockout mice and wild-type littermates are randomly divided into 8 groups as shown in the figure according to the genotype, with 6 mice per group. The mice are given free access to water and fed a high-fat, high-cholesterol, and cholate (HF/HC/BS) diet (60% fat, 1.25% cholesterol, and 0.5% cholate). […] After 14 days, the mice are fasted for 4 hours before being sacrificed. All data are presented as mean±SEM. Statistical significance is calculated using an unpaired two-tailed Student's t-test. *p<0.05, **p<0.01, ***p<0.001. (a) Western blotting analysis of liver samples; (b) total cholesterol in serum; (c) triglyceride in serum; (d) total cholesterol in liver; (e) triglyceride in liver; (f) concentration of cholesterol in bile; (g) total cholesterol in bile; (h) concentration of bile acid in bile; (i) total bile acid in bile; (j) total cholesterol in feces; (k) body weight; (l) daily food intake; (m) ratio of liver weight to body weight; (n) blood glucose; (o) alanine transaminase in serum; (p) aspartate transaminase in serum; (q-r) real-time quantitative PCR analysis of genes related to cholesterol efflux, cholesterol synthesis and absorption, lipid synthesis, and bile acid synthesis in the liver of mice, and genes in other pathways, with cyclophilin as an internal reference; (s) hematoxylin-eosin staining of liver sections; (t) oil red O staining of liver sections.
In the experiment, wild-type littermates were used as a control. All mice were housed in an SPF (specific pathogen-free) facility and kept on a 12-hour light/12-hour dark cycle. 8-week-old male or female mice were fed a high-fat, high-cholesterol, and cholate diet (Research Diets, D12109C) as required by the experimental protocols. For treatments involving antibody neutralization or the combination of antibodies with statins or Ezetimibe, the mice were intraperitoneally injected with antibodies or intragastrically administered with drugs at specified doses. All animals were fasted for 4 hours before being sacrificed.
The collected cells or tissues were lysed in RIPA lysis buffer supplemented with protease and phosphatase inhibitors. The RIPA lysis buffer contained 50 mM Tris-HCl (pH=8.0), 150 mM NaCl, 2 mM MgCl2, 1.5% NP-40, 0.1% SDS, and 0.5% sodium deoxycholate. The protease inhibitor contained 10 μM MG-132, 10 μg/mL leupeptin, 1 mM PMSF, 5 μg/mL pepstatin, 25 μg/mL ALLN, and 1 mM DTT. The protein concentration of the lysate was determined using a BCA method (Thermo Fisher Scientific). The protein samples were incubated with membrane solubilization buffer (62.5 mM Tris-HCl (pH=6.8), 15% SDS, 8 M urea, 10% glycerol, and 100 mM DTT) and 4× loading buffer (150 mM Tris-HCl (pH=6.8), 12% SDS, 30% glycerol, 6% β-mercaptoethanol, and 0.02% bromophenol blue) at 37° C. for 30 minutes. The protein samples were separated by SDS-PAGE and transferred to a PVDF membrane, which was blocked in TBST, i.e., TBS containing 0.075% Tween 20 and 5% skim milk (3% BSA for phosphorylation experiments) for 1 hour. The membrane was incubated overnight at 4° C. with a specified primary antibody, and washed three times with TBST. Finally, Pierce ECL Plus Western blotting substrate (Thermo Fisher Scientific) was used for detection.
Blood was collected from the orbital sinus to obtain serum for the measurement of total cholesterol and triglyceride.

[2] = system: mice fed a high-fat, high-cholesterol, and cholate (HF/HC/BS) diet; assay: 4B9 and Ezetimibe, alone or combined, in mice fed HF/HC/BS diet (Example 3, FIG. 4); assay type: in vivo, mouse; conditions: sacrificed on day 7, 4B9 10 mg/kg i.p. every other day
Method: All data are presented as mean±SEM.
We then devised an experiment as in FIG. 4 to verify the hypothesis. Mice were randomly divided into 8 groups according to the genotype (n=6) and fed an HF/HC/BS diet. They were intragastrically administered with EZ at 10 mg/kg per day and were intraperitoneally injected with 4B9 at 10 mg/kg every other day. The mice were sacrificed on day 7 to collect their tissues.

[3] = Ezetimibe used alone, clinical; cited from earlier work
[4] = EZ 10 mg/kg per day intragastric (FIGS. 4a, 4p-q)

CC(C)c1c(C(=O)Nc2ccccc2)c(-c2ccccc2)c(-c2ccc(F)cc2)n1CC[C@@H](O)C[C@@H](O)CC(=O)O [atorvastatin]
total cholesterol in serum ([1]; atorvastatin 30 mg/kg/day intragastric daily (FIG. 3b)): effectively reduce | triglyceride in serum ([1]; atorvastatin 30 mg/kg/day intragastric daily (FIG. 3c)): effectively reduce | triglyceride in liver ([1]; atorvastatin 30 mg/kg/day intragastric daily (FIG. 3e)): effectively reduce | total amount of total cholesterol in bile ([1]; atorvastatin 30 mg/kg/day intragastric daily (FIG. 3g)): almost no effect | total cholesterol in feces ([1]; atorvastatin 30 mg/kg/day intragastric daily (FIG. 3j)): no effect | total cholesterol in liver ([1]; atorvastatin 30 mg/kg/day intragastric daily (FIG. 3d)): effectively reduce | body weight ([1]; 8 groups of mice, atorvastatin 30 mg/kg/day intragastric daily (FIG. 3k)): No significant differences | daily food intake ([1]; 8 groups of mice, atorvastatin 30 mg/kg/day intragastric daily (FIG. 3l)): No significant differences | blood glucose ([1]; 8 groups of mice, atorvastatin 30 mg/kg/day intragastric daily (FIG. 3n)): No significant differences | ALT ([1]; 8 groups of mice, atorvastatin 30 mg/kg/day intragastric daily (FIG. 3o)): No significant differences | AST ([1]; 8 groups of mice, atorvastatin 30 mg/kg/day intragastric daily (FIG. 3p)): No significant differences

O=C1[C@H](CC[C@H](O)c2ccc(F)cc2)[C@@H](c2ccc(O)cc2)N1c1ccc(F)cc1 [Ezetimibe, reference compound]
body weight ([2]; 8 groups of mice, EZ 10 mg/kg per day intragastric (FIG. 4j)): No significant differences | daily food intake ([2]; 8 groups of mice, EZ 10 mg/kg per day intragastric (FIG. 4k)): No significant differences | ratio of liver weight to body weight ([2]; 8 groups of mice, EZ 10 mg/kg per day intragastric (FIG. 4l)): No significant differences | blood glucose ([2]; 8 groups of mice, EZ 10 mg/kg per day intragastric (FIG. 4m)): No significant differences | ALT ([2]; 8 groups of mice, EZ 10 mg/kg per day intragastric (FIG. 4n)): No significant differences | AST ([2]; 8 groups of mice, EZ 10 mg/kg per day intragastric (FIG. 4o)): No significant differences | total cholesterol in serum ([2]; EZ 10 mg/kg per day intragastric (FIG. 4b)): effectively reduce | triglyceride in serum ([2]; EZ 10 mg/kg per day intragastric (FIG. 4c)): effectively reduce | triglyceride in liver ([2]; EZ 10 mg/kg per day intragastric (FIG. 4e)): effectively reduce | total amount of total cholesterol in bile ([2]; EZ 10 mg/kg per day intragastric (FIG. 4g)): significantly inhibited | total amount of total bile acid in bile ([2]; EZ 10 mg/kg per day intragastric (FIG. 4i)): significantly inhibited | total cholesterol in liver ([2]; EZ 10 mg/kg per day intragastric (FIG. 4d)): effectively reduce | cholesterol efflux-related genes and their proteins (LXRs, ABCG8, ABCA1, CYP7A1) in liver [2, 4]: significant decrease | lipid synthesis-related genes and their proteins (SREBP1, FASN) in liver [2, 4]: significant decrease | reduction of the plasma concentration of LDL-c [3]: about 20%
